Some results are limits rather than exact numbers.

The target in the test is T1, human vasopressin V1b receptor (Homo sapiens, UniProt P47901).
T1 construct: expressed in transfected cells; host or cells: CHO-K1 (cell line hV1b-3H2_CHO), membrane preparation
T1 sequence (P47901 1-424): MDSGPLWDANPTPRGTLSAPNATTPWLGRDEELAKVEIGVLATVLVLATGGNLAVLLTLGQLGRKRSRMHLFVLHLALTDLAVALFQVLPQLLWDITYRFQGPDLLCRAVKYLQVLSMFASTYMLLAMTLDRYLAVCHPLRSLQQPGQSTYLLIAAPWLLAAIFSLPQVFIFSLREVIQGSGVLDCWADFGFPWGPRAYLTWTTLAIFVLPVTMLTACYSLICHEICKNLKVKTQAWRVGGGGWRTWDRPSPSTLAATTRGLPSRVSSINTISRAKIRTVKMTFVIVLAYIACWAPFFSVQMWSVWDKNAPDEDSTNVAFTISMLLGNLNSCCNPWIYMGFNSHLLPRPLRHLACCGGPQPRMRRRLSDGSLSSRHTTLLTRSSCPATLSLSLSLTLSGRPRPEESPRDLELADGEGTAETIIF
The experiment in a line: Vasopressin V1b receptor binding assay. The following applies: membranes from CHO-K1 cells with stably expressed human V1b receptors; displacement of 1.5 nM 3H-AVP; read-out: V1b receptor affinity (affinity constant Ki). Here is the method: Vasopressin V1b Receptor Binding Assay:
The test substances were dissolved in a concentration of 10^−2 M in DMSO and further diluted to 5×10^−4 M to 5×10^−9 M in DMSO. This series of DMSO predilutions was diluted 1:10 with assay buffer. The substance concentration was again diluted 1:5 in the assay mixture (2% DMSO in the mixture).
The membrane pellet was again homogenized and centrifuged as described and then taken up in 50 mM Tris-HCl, pH 7.4, homogenized and stored in aliquots frozen in liquid nitrogen at −190° C.
The incubation buffer was: 50 mM Tris, 10 mM MgCl2, 0.1% BSA, pH 7.4. […] The nonspecific binding was determined with 1 uM AVP (Bachem #H1780). All determinations were carried out as triplicate determinations. After incubation (60 minutes at room temperature), the free radioligand was removed by vacuum filtration (Skatron cell harvester 7000) through Wathman GF/B glass fiber filter mats, and the filters were transferred into scintillation vials. The liquid scintillation measurement took place in a Tricarb model 2000 or 2200CA instrument (Packard). Conversion of the measured cpm into dpm was carried out with the aid of a standard quench series.
The binding parameters were calculated by nonlinear regression in SAS.
The above assay was used to measure the affinities of the compounds of the invention for the human vasopressin V1b receptor and to determine the affinity constants (Ki).
As a reminder, the Ki is the dissociation constant of the complex between target and ligand, obtained from inhibition or displacement. With `COc1ccc(C(C(=O)N2CCN(c3ccncc3)CC2)n2c(=O)n(S(=O)(=O)c3ccc(OC)cc3OC)c3ccc(Cl)cc32)cc1` (stereo not shown) [Example 1, 5-Chloro-1-(2,4-dimethoxybenzenesulfonyl)-3-[1-(4-methoxyphenyl)-2-oxo-2-(4-pyridin-4-ylpiperazin-1-yl)ethyl]-1,3-dihydrobenzimidazol-2-one], the Ki was 0.1 to 0.5 µM. Turning to `O=C(C(c1ccccc1)n1c(=O)n(S(=O)(=O)c2ccco2)c2ccc(Cl)cc21)N1CCN(c2ccncc2)CC1` (stereo not shown) [Example 2, 5-Chloro-1-(furan-2-sulfonyl)-3-[2-oxo-1-phenyl-2-(4-pyridin-4-ylpiperazin-1-yl)ethyl]-1,3-dihydrobenzimidazol-2-one], the Ki was 0.1 to 0.5 µM. With `CN1CCN(C2CCN(C(=O)C(c3ccccc3)n3c(=O)n(S(=O)(=O)c4cccc5cccnc45)c4ccc(Cl)cc43)CC2)CC1` (stereo not shown) [Example 3, 5-Chloro-3-{2-[4-(4-methylpiperazin-1-yl)piperidin-1-yl]-2-oxo-1-phenyl-ethyl}-1-(quinoline-8-sulfonyl)-1,3-dihydrobenzimidazol-2-one], the Ki was in the range of 0.5 to 10 µM. `COc1ccc(S(=O)(=O)n2c(=O)n(C(C(=O)N3CCN(c4ccncc4)CC3)c3ccccc3)c3cc(I)ccc32)cc1` (stereo not shown) [Example 4, 5-Iodo-1-(4-methoxybenzenesulfonyl)-3-[2-oxo-1-phenyl-2-(4-pyridin-4-ylpiperazin-1-yl)ethyl]-1,3-dihydrobenzimidazol-2-one]: the Ki is less than 0.1 µM. In the case of `O=C(C(c1ccccc1)n1c(=O)n(S(=O)(=O)c2ccsc2)c2ccc(Cl)cc21)N1CCN(c2ccncc2)CC1` (stereo not shown) [Example 5, 5-Chloro-3-[2-oxo-1-phenyl-2-(4-pyridin-4-ylpiperazin-1-yl)ethyl]-1-(thiophene-3-sulfonyl)-1,3-dihydrobenzimidazol-2-one], the Ki is 0.1 to 0.5 µM. With `COc1ccc(S(=O)(=O)n2c(=O)n(C(C(=O)N3CCN(c4ccncc4)CC3)c3ccccc3OC)c3cc(Cl)ccc32)cc1` (stereo not shown) [Example 6, 5-Chloro-1-(4-methoxybenzenesulfonyl)-3-[1-(2-methoxyphenyl)-2-oxo-2-(4-pyridin-4-ylpiperazin-1-yl)ethyl]-1,3-dihydrobenzimidazol-2-one], the Ki lay in the range of 0.1 to 0.5 µM. Regarding `O=C(C(c1ccccc1)n1c(=O)n(S(=O)(=O)c2ccc(Cl)s2)c2ccc(Cl)cc21)N1CCN(c2ccncc2)CC1` (stereo not shown) [Example 7, 5-Chloro-1-(5-chlorothiophene-2-sulfonyl)-3-[2-oxo-1-phenyl-2-(4-pyridin-4-ylpiperazin-1-yl)ethyl]-1,3-dihydrobenzimidazol-2-one], the Ki lay in the range of 0.5 to 10 µM. On to `COc1ccc(S(=O)(=O)n2c(=O)n(C(C(=O)N3CCN(C4CCN(C)CC4)CC3)c3ccccc3OC)c3cc(Cl)ccc32)c(OC)c1` (stereo not shown) [Example 8, 5-Chloro-1-(2,4-dimethoxybenzenesulfonyl)-3-{1-(2-methoxyphenyl)-2-[4-(1-methylpiperidin-4-yl)piperazin-1-yl]-2-oxoethyl}-1,3-dihydrobenzimidazol-2-one], for which the Ki is 0.5 to 10 µM. As for `COc1ccc(S(=O)(=O)n2c(=O)n(C(C(=O)N3CCN(C4CCN(C)CC4)CC3)c3ccccc3OC)c3cc(Cl)ccc32)cc1` (stereo not shown) [Example 9, 5-Chloro-1-(4-methoxybenzenesulfonyl)-3-{1-(2-methoxyphenyl)-2-[4-(1-methylpiperidin-4-yl)piperazin-1-yl]-2-oxoethyl}-1,3-dihydrobenzimidazol-2-one], the Ki fell in the range of 0.5 to 10 µM.

Regarding `COc1ccc(S(=O)(=O)n2c(=O)n(C(C(=O)N3CCN(C4CCN(C)CC4)CC3)c3ccccc3)c3cc(C#N)ccc32)c(OC)c1` (stereo not shown) [Example 10, 1-(2,4-Dimethoxybenzenesulfonyl)-3-{2-[4-(1-methylpiperidin-4-yl)piperazin-1-yl]-2-oxo-1-phenylethyl}-2-oxo-2,3-dihydro-1H-benzimidazole-5-carbonitrile], the Ki fell in the range of 0.5 to 10 µM.
